Test results taken from the supplement of paper PMC11061612.

How the values were obtained:
Test in all cases: combination Emax (second highest fraction inhibited in the dose matrix, 72 h); higher = more inhibition; extreme values may be limits of the assay
[1] = test system: ESS-1 (Other Solid Carcinomas)
Procedure, shortened: (§1)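 After 24 hours at 37°C and 5% CO2 in 1536-well plates, cells in DMEM/F12 or RPMI plus 10% FBS received two-drug dose matrices for 72 hours. Viability came from CellTiter-Glo 2.0 luminescence and was scaled as inhibition, anchored at 0 by vehicle wells and at 1 by blank wells. Combination Emax is taken as the second-highest inhibition in the matrix, and Bliss excess as the observed combination effect less EA + EB − EA·EB, with EA and EB the single-agent effects.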

[2] = test system: CAL-33 (Oral Cavity Carcinoma)
Procedure, shortened: as §1

[3] = test system: HH (T-Cell Non-Hodgkin's Lymphoma)
Procedure, shortened: as §1

[4] = test system: OV-56 (Ovarian Carcinoma)
Procedure, shortened: as §1

[5] = test system: BFTC-909 (Kidney Carcinoma)
Procedure, shortened: as §1

[6] = test system: SW1573 (Lung Adenocarcinoma)
Procedure, shortened: as §1

[7] = test system: HeLa (Cervical Carcinoma)
Procedure, shortened: as §1

[8] = test system: NCI-H524 (Small Cell Lung Carcinoma)
Procedure, shortened: as §1

[9] = test system: SNU-16 (Gastric Carcinoma)
Procedure, shortened: as §1

[10] = test system: SW1710 (Bladder Carcinoma)
Procedure, shortened: as §1

[11] = test system: OE21 (Esophageal Squamous Cell Carcinoma)
Procedure, shortened: as §1

BE2-M17 (Neuroblastoma) = test system: BE2-M17 (Neuroblastoma)
Procedure, shortened: as §1

EW-11 (Ewing's Sarcoma) = test system: EW-11 (Ewing's Sarcoma)
Procedure, shortened: as §1

[12] = test system: Hs-746T (Gastric Carcinoma)
Procedure, shortened: as §1

[13] = test system: WSU-NHL (B-Cell Non-Hodgkin's Lymphoma)
Procedure, shortened: as §1

[14] = test system: TGBC1TKB (Biliary Tract Carcinoma)
Procedure, shortened: as §1

CAL-72 (Osteosarcoma) = test system: CAL-72 (Osteosarcoma)
Procedure, shortened: as §1

[15] = test system: SNU-449 (Hepatocellular Carcinoma)
Procedure, shortened: as §1

[16] = test system: LNZTA3WT4 (Low Grade Glioma)
Procedure, shortened: as §1

[17] = test system: SAS (Oral Cavity Carcinoma)
Procedure, shortened: as §1

| Compound | combination Emax [1] | combination Emax [2] | combination Emax [3] | combination Emax [4] | combination Emax [5] | combination Emax [6] | combination Emax [7] | combination Emax [8] | combination Emax [9] | combination Emax [10] | combination Emax [11] | combination Emax (BE2-M17 (Neuroblastoma)) | combination Emax (EW-11 (Ewing's Sarcoma)) | combination Emax [12] | combination Emax [13] | combination Emax [14] | combination Emax (CAL-72 (Osteosarcoma)) | combination Emax [15] | combination Emax [16] | combination Emax [17] |
| --- | --- | --- | --- | --- | --- | --- | --- | --- | --- | --- | --- | --- | --- | --- | --- | --- | --- | --- | --- | --- |
| Cc1c2c(nn1C)CSCc1cc(n(C)n1)CSc1cc(c3ccccc3c1)OCCCc1c(C(=O)O)n(C)c3c-2c(Cl)ccc13 [AZD5991] + CN(C)CCCOc1ccc(-c2ccc3ncc4c(c3c2)n(C2CCOCC2)c(=O)n4C)cn1 [AZD0156] (first compound max 1 µM, 7x7, partner max 1 µM) | 0.36 | 0.185 | 0.756 | 0.181 | 0.239 | 0.214 | 0.46 | 0.452 | 0.974 | 0.219 | 0.345 | 0.875 | 0.803 | 0.358 | 0.92 | 0.219 | 0.328 | 0.25 | 0.227 | 0.268 |
| COc1cccc(OCCCN)c1-c1cc(Nc2cnc(C#N)cn2)n[nH]1 [Prexasertib] + O=C(c1cc(Cc2n[nH]c(=O)c3ccccc23)ccc1F)N1CCN(C(=O)C2CC2)CC1 [Olaparib] (first compound max 1 µM, 7x7, partner max 10 µM) | 1 | 0.833 | 0.542 | 0.89 | 0.917 | 0.241 | 0.773 | 0.929 | 1 | 0.761 | 0.678 | 0.958 | 0.792 | 0.806 | 1 | 0.446 | 0.81 | 0.234 | 0.885 | 0.93 |
| Cn1cnc2c(F)c(Nc3ccc(Br)cc3Cl)c(C(=O)NOCCO)cc21 [Selumetinib] + CCN(CCO)CCCOc1ccc2c(Nc3cc(CC(=O)Nc4cccc(F)c4)[nH]n3)ncnc2c1 [AZD2811] (first compound max 10 µM, 7x7, partner max 1 µM) | 0.462 | 0.653 | 0.173 | 0.116 | 0.314 | 0.251 | 0.171 | 0.955 | 0.561 | 0.214 | 0.441 | 0.644 | 0.199 | 0.478 | 0.642 | 0.211 | 0.181 | 0.221 | 0.226 | 0.471 |
| CN(C)CCCOc1ccc(-c2ccc3ncc4c(c3c2)n(C2CCOCC2)c(=O)n4C)cn1 [AZD0156] + CCN(CCO)CCCOc1ccc2c(Nc3cc(CC(=O)Nc4cccc(F)c4)[nH]n3)ncnc2c1 [AZD2811] (first compound max 1 µM, 7x7, partner max 1 µM) | 0.606 | 0.71 | 0.151 | 0.062 | 0.127 | 0.168 | 0.156 | 0.973 | 0.593 | 0.0832 | 0.22 | 0.411 | 0.409 | 0.155 | 0.879 | 0.0674 | 0.286 | 0.0548 | 0.105 | 0.0904 |
| CCN(CCO)CCCOc1ccc2c(Nc3cc(CC(=O)Nc4cccc(F)c4)[nH]n3)ncnc2c1 [AZD2811] + C[C@@H]1COCCN1C2=NC(=NC(=C2)C3(CC3)[S@](=N)(=O)C)C4=C5C=CNC5=NC=C4 [AZD6738] (first compound max 1 µM, 7x7, partner max 10 µM) | 0.97 | 0.936 | 0.179 | 0.609 | 0.777 | 0.266 | 0.567 | 1 | 0.974 | 0.398 | 0.666 | 0.741 | 0.686 | 0.582 | 0.967 | 0.383 | 0.843 | 0.176 | 0.754 | 0.83 |
| CC(=O)c1c(C)c2cnc(Nc3ccc(N4CCNCC4)cn3)nc2n(C2CCCC2)c1=O [Palbociclib] + Cc1c2c(nn1C)CSCc1cc(n(C)n1)CSc1cc(c3ccccc3c1)OCCCc1c(C(=O)O)n(C)c3c-2c(Cl)ccc13 [AZD5991] (first compound max 10 µM, 7x7, partner max 1 µM) | 0.266 | 0.291 | 0.911 | 0.0925 | 0.406 | 0.2 | 0.39 | 0.808 | 0.973 | 0.29 | 0.393 | 0.409 | 0.605 | 0.299 | 0.928 | 0.164 | 0.441 | 0.335 | 0.411 | 0.538 |
| CC1(C)CCC(CN2CCN(c3ccc(C(=O)NS(=O)(=O)c4ccc(NCC5CCOCC5)c([N+](=O)[O-])c4)c(Oc4cnc5[nH]ccc5c4)c3)CC2)=C(c2ccc(Cl)cc2)C1 [Venetoclax] + C1CN(CCC1(C(=O)N[C@@H](CCO)C2=CC=C(C=C2)Cl)N)C3=NC=NC4=C3C=CN4 [Capivasertib] (first compound max 1 µM, 7x7, partner max 3 µM) | 0.891 | 0.276 | 0.44 | 0.153 | 0.554 | 0.257 | 0.22 | 0.166 | 0.189 | 0.23 | 0.48 | 0.254 | 0.711 | 0.275 | 0.977 | 0.309 | 0.554 | 0.222 | 0.508 | 0.286 |
| CS(=O)(=O)CCNCc1ccc(-c2ccc3ncnc(Nc4ccc(OCc5cccc(F)c5)c(Cl)c4)c3c2)o1 [Lapatinib] + C[C@@H](Oc1cc(-c2cnn(C3CCNCC3)c2)cnc1N)c1c(Cl)ccc(F)c1Cl [Crizotinib] (first compound max 10 µM, 7x7, partner max 10 µM) | 0.917 | 0.989 | 0.327 | 0.872 | 0.869 | 0.462 | 0.859 | 0.952 | 0.973 | 0.846 | 0.936 | 0.868 | 0.936 | 0.876 | 0.966 | 0.616 | 0.906 | 0.827 | 0.872 | 0.825 |
| COc1nnc2ccc(N3CCC(c4ccc(OCCN5CCN(C)C(=O)[C@H]5C)cc4)CC3)nn12 [AZD5153] + CCN(CCO)CCCOc1ccc2c(Nc3cc(CC(=O)Nc4cccc(F)c4)[nH]n3)ncnc2c1 [AZD2811] (first compound max 1 µM, 7x7, partner max 1 µM) | 0.809 | 0.609 | 0.485 | 0.283 | 0.535 | 0.504 | 0.433 | 0.97 | 0.868 | 0.33 | 0.693 | 0.644 | 0.452 | 0.572 | 0.934 | 0.307 | 0.503 | 0.298 | 0.457 | 0.819 |
| CC1(C)CCC(CN2CCN(c3ccc(C(=O)NS(=O)(=O)c4ccc(NCC5CCOCC5)c([N+](=O)[O-])c4)c(Oc4cnc5[nH]ccc5c4)c3)CC2)=C(c2ccc(Cl)cc2)C1 [Venetoclax] + C[C@@H](Nc1cc(F)cc(F)c1)c1cc(C(=O)N(C)C)cc2c(=O)cc(N3CCOCC3)oc12 [AZD8186] (first compound max 1 µM, 7x7, partner max 3 µM) | 0.814 | 0.149 | 0.434 | 0.0859 | 0.203 | 0.136 | 0.124 | 0.535 | 0.251 | 0.194 | 0.109 | 0.276 | 0.699 | 0.269 | 1 | 0.526 | 0.406 | 0.172 | 0.185 | 0.282 |
| CC1(C)CCC(CN2CCN(c3ccc(C(=O)NS(=O)(=O)c4ccc(NCC5CCOCC5)c([N+](=O)[O-])c4)c(Oc4cnc5[nH]ccc5c4)c3)CC2)=C(c2ccc(Cl)cc2)C1 [Venetoclax] + Cc1cc2ncnn2cc1Nc1ncc2c(n1)n(C1CCOCC1)c(=O)n2C [AZD7648] (first compound max 1 µM, 7x7, partner max 10 µM) | 0.886 | 0.329 | 0.273 | 0.15 | 0.294 | 0.144 | 0.199 | 0.308 | 0.223 | 0.248 | 0.206 | 0.276 | 0.558 | 0.226 | 0.869 | 0.297 | 0.643 | 0.229 | 0.385 | 0.256 |
| CC1(C)CCC(CN2CCN(c3ccc(C(=O)NS(=O)(=O)c4ccc(NCC5CCOCC5)c([N+](=O)[O-])c4)c(Oc4cnc5[nH]ccc5c4)c3)CC2)=C(c2ccc(Cl)cc2)C1 [Venetoclax] + CN(C)CCCOc1ccc(-c2ccc3ncc4c(c3c2)n(C2CCOCC2)c(=O)n4C)cn1 [AZD0156] (first compound max 1 µM, 7x7, partner max 1 µM) | 0.93 | 0.178 | 0.18 | 0.183 | 0.144 | 0.201 | 0.188 | 0.321 | 0.152 | 0.239 | 0.162 | 0.238 | 0.69 | 0.226 | 0.811 | 0.244 | 0.687 | 0.243 | 0.4 | 0.256 |
